What was measured:
cochlear blood flow = tested on: cochlear blood flow; parameters: method as in PMID 25014609; details: guinea pig model ref 29; cited from earlier work
[1] = Plasma pharmacokinetics of betahistine and 2-PAA after oral dosing in UVN cats (LC-MS/MS, non-compartmental analysis); format: in vivo, cat; details: days 1 and 21
Experimental: The experiments were performed on nine adult male UVN cats randomly allocated into three groups of cats. Three groups of three adult male cats received 0.2 mg/kg betahistine (N = 3: cats 1–3), 2 mg/kg betahistine (N = 3: cats 4–6), or 0.2 mg/kg betahistine plus 1 mg/kg selegiline (N = 3: cats 7–9). […] The samples were frozen at −80°C until analysis. Pharmacokinetic parameters of betahistine and its major metabolite 2-PAA were calculated by applying non-compartmental analysis.
Betahistine and its internal standard, betahistine-d3, were extracted by liquid/liquid extraction from plasma under alkaline conditions toward 1-butanol/isooctane, followed by a second liquid/liquid extraction step of acidic 1-butanol/isooctane toward water. Betahistine concentration in plasma was analyzed using a validated LC-MS/MS method. In brief, an API 4000 (Applied Biosystems) mass spectrometer coupled with a Symbiosis HPLC system (Sparks, Emmen, The Netherlands) was employed to analyze betahistine. Extracts (100 μl) were injected into a XTerra RP18 150 ^* 4.6 mm, 3.5 μm column (Waters, Etten-Leur, The Netherlands) and separated at 30°C under isocratic conditions using an aqueous metanol solution containing 0.5 mM ammonium formate as mobile phase. Betahistine was quantified by a tandem mass spectrometer in positive MRM. Parent daughter transition was followed for betahistine (m/z 137 > 94). Betahistine-d3 dihydrochloride was used as internal standard. Pharmacokinetic parameters of betahistine were calculated by applying non-compartmental analysis using the validated PK software WinNonLin, version 5.23 (Pharsight Corporation, Mountain View, CA, USA).
Cmax and tmax were derived directly from the plasma concentration-time curves. Linear trapezoidal rule was used to calculate AUC0-t during the part of the curve with increasing plasma concentrations. For the descending part of the curve, the log-linear trapezoidal rule was used. Calculation of the elimination half-life (t1/2) was evaluated as ln 2/kel, with kel as the slope of the terminal phase of the plasma concentration-time curve.

| Effect of selegiline co-administration on 2-PAA Cmax-values [1] | SMILES | Increase in cochlear blood flow (cochlear blood flow) |
| --- | --- | --- |
|  | OCCc1ccccn1 [hydroxyethylpyridine] | observed |
|  | NCCc1ccccn1 [aminoethylpyridine] | observed |
| strongly reduced | O=C(O)Cc1ccccn1 [2-PAA, 2-pyridylacetic acid] | not |
